Measured values: patent publication US20240261297A1, “ANTI-CDK INHIBITORS FOR CANCER TREATMENT” (St. John's Cancer Institute, priority 2021, published 2024)
Read-outs that look alike come from different tables or passages of the source.

Experiments:
[1] = test system: pCDK2 and phospho-RB in MDA-MB-468 cells; assay: Western blot of pCDK2 and phospho-Rb in MDA-MB-468 cells; assay type: cell-based; conditions: increasing amounts
Description: FIGS. 3A-3B show target protein inhibition in Basal like TNBC cells. FIG. 3A is a Western blot showing pCDK2 levels in MDA-MB-468 cells with increasing dose of I-3 (CD11). FIG. 3B is a Western blot showing Phospho-Rb levels in MDA-MB-468 cells with increasing dose of I-3 (CD11).
Compound 1-3 efficacy was assessed in several in vitro assays. A nanoBrET assay was used to measure intracellular kinase activity of I-3 with CDK2, CDK1, CDK7 and CDK9. Briefly, HEK293 cells were transfected with CDK2, CDK1, CDK7 and CDK9. The transfected cells were treated in duplicate with test compound I-3 (starting at 10 μM, 10-dose with 3-fold dilution) and target engagement was measured by NanoBRET assay (FIG. 2A and Table 4). Cellular thermal shift assay (CETSA) was also performed to evaluate drug target interaction in the cells. The CETSA method is built upon two concepts: cellular thermal shift and isothermal dose-response. The cellular thermal shift assay is based on the established fact that proteins that are complexed to a ligand become more resistant to heat induced unfolding. Isothermal dose response is used to determine a compound's potency in binding the target by measuring the thermal stability of the target treated with various concentrations of compound at a fixed temperature. […]

CDK5/p35 = CDK5/p35 (Homo sapiens, UniProt Q00535); assay: Radioisotope-based protein kinase assay; assay type: biochemical; conditions: Table 2
Description: (§1) A series of test compounds were selected for initial screening against CDK isoforms. Protein kinase assays were performed with gold standard radioisotope-based assay formats to measuring enzyme activity remaining in presence and absence of inhibitor.
The activity of compound I-3 was compared to that of a panel of CDKs and their respective binding partners (Tables 2 and 3).

MCF-10A = assay: Cell viability in breast cell lines; assay type: cell-based; conditions: Homo sapiens, 72 hours
Description: Tables 5 and 6 show assessment of in vitro efficacy of I-3 in a panel of breast cancer cell lines.

CKD9/Cyclin H = CKD9/Cyclin H (Homo sapiens, UniProt P50750); assay: Biochemical profile against CDKs and binding partners (Table 3)
Description: as §1

PLC/PRF/5 cells = assay: Cell viability of HCC cells by CellTiter Glo assay; assay type: cell-based; conditions: Homo sapiens, 72 hours
Description: FIG. 5 is a graph showing cell viability of hepatocellular carcinoma (HCC) cell lines treated with I-3 for 72 hours, assessed by CellTiter Glo assay, with the control level of cells considered 100%.
I-3 was also tested for efficacy on hepatocellular carcinoma (HCC) cell lines. Cell viability was measured by CellTiter Glo assay (FIG. 5 and Table 8).

CDK1/Cyclin B1 = target: T1, CDK1/Cyclin B1 (Homo sapiens, UniProt P06493); assay: NanoBRET target engagement intracellular kinase assay in HEK293 cells; assay type: cell-based; conditions: transfected HEK293 cells; 10-dose, 3-fold from 10 μM, duplicate
T1 construct: expressed in transfected cells; host or cells: HEK293
Description: (§2) Compound 1-3 efficacy was assessed in several in vitro assays. A nanoBrET assay was used to measure intracellular kinase activity of I-3 with CDK2, CDK1, CDK7 and CDK9. Briefly, HEK293 cells were transfected with CDK2, CDK1, CDK7 and CDK9. The transfected cells were treated in duplicate with test compound I-3 (starting at 10 μM, 10-dose with 3-fold dilution) and target engagement was measured by NanoBRET assay (FIG. 2A and Table 4). Cellular thermal shift assay (CETSA) was also performed to evaluate drug target interaction in the cells. The CETSA method is built upon two concepts: cellular thermal shift and isothermal dose-response. The cellular thermal shift assay is based on the established fact that proteins that are complexed to a ligand become more resistant to heat induced unfolding. Isothermal dose response is used to determine a compound's potency in binding the target by measuring the thermal stability of the target treated with various concentrations of compound at a fixed temperature. Briefly, cell lysate was treated with I-3 (starting at 300 nM, 10-dose with 3-fold dilution) and incubated for 1 hour and cell lysates were then subjected to predetermined thermal aggregation temperature (58° C.) for another 20 min. Western blot was performed to determine the levels of target protein bound to I-3 (FIG. 2B).

CDK7/cyclin H [2] = target: T2, CDK7/cyclin H (Homo sapiens, UniProt P50613); assay: as above; assay type: cell-based; conditions: transfected HEK293 cells; 10-dose, 3-fold from 10 μM, duplicate
Description: as §2

CDK9/cyclin T1 [3] = target: T3, CDK9/cyclin T1 (Homo sapiens, UniProt P50750); assay: as above; assay type: cell-based; conditions: transfected HEK293 cells; 10-dose, 3-fold from 10 μM, duplicate
Description: as §2

CDK2/Cyclin E1 = target: T4, CDK2/Cyclin E1 (Homo sapiens, UniProt P24941); assay: as above; assay type: cell-based; conditions: transfected HEK293 cells; 10-dose, 3-fold from 10 μM, duplicate
T4 construct: expressed in transfected cells; host or cells: HEK293
Description: as §2

[4] = Absolute bioavailability / PK after IV and PO dosing in CD-1 male mice; assay type: in vivo; conditions: for Vd / AUC(0-t) / Tmax: male
Description: Absolute bioavailability of I-3 was assessed after IV and PO dosing in CD-1 male mice. Mean plasma concentration (FIG. 6) and PK parameters (Table 12) are shown. […] Plasma concentrations were observed up to 8 hours, and plasma concentrations were not observed at 24 hour time point. […] This is approximately 50% of the hepatic blood flow ([…]) in mice.

CDK7/cyclin H [5] = target: T2, CDK7/cyclin H; assay: Radioisotope-based protein kinase assay; assay type: biochemical; conditions: 10 μM ATP, 3-fold dilution from 10 μM
Description: as §1

CDK9/cyclin T1 [6] = target: T3, CDK9/cyclin T1; assay: Radioisotope-based protein kinase assay; assay type: biochemical; conditions: 10 μM ATP, 3-fold dilution from 10 μM
Description: as §1

CDK6/cyclin D1 = CDK6/cyclin D1 (Homo sapiens, UniProt Q00534); assay: Radioisotope-based protein kinase assay; assay type: biochemical; conditions: 10 μM ATP, 3-fold dilution from 10 μM
Description: as §1

CDK2/cyclin A = CDK2/cyclin A (Homo sapiens, UniProt P24941); assay: Radioisotope-based protein kinase assay; assay type: biochemical; conditions: 10 μM ATP, 3-fold dilution from 10 μM
Description: as §1

CDK4/cyclin D1 = CDK4/cyclin D1 (Homo sapiens, UniProt P11802); assay: Radioisotope-based protein kinase assay; assay type: biochemical; conditions: 10 μM ATP, 3-fold dilution from 10 μM
Description: as §1

CDK1/cyclin A = CDK1/cyclin A (Homo sapiens, UniProt P06493); assay: Radioisotope-based protein kinase assay; assay type: biochemical; conditions: 10 μM ATP, 3-fold dilution from 10 μM
Description: as §1

CDK2/cyclin E = CDK2/cyclin E (Homo sapiens, UniProt P24941); assay: Radioisotope-based protein kinase assay; assay type: biochemical; conditions: 10 μM ATP, 3-fold dilution from 10 μM
Description: as §1

CDK1/cyclin B = CDK1/cyclin B (Homo sapiens, UniProt P06493); assay: Radioisotope-based protein kinase assay; assay type: biochemical; conditions: 10 μM ATP, 3-fold dilution from 10 μM
Description: as §1

CDK5/p25 = CDK5/p25 (Homo sapiens, UniProt Q00535); assay: Radioisotope-based protein kinase assay; assay type: biochemical; conditions: Table 1; 10 μM ATP
Description: as §1

[7] = CD-1, mouse, plasma, male CD1 mice, PO 10 mg/kg

T3 sequence (P50750 whole entry): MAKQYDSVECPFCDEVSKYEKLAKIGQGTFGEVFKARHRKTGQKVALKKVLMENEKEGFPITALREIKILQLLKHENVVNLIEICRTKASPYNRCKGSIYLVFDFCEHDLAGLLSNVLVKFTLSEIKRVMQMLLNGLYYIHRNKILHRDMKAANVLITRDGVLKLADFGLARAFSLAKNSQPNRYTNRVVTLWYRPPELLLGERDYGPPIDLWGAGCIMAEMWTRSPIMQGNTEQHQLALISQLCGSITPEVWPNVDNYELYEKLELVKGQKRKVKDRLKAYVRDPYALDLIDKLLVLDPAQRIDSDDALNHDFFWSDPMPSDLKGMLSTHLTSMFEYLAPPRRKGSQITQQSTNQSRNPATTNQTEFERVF
T3 sequence (O60563 whole entry partner): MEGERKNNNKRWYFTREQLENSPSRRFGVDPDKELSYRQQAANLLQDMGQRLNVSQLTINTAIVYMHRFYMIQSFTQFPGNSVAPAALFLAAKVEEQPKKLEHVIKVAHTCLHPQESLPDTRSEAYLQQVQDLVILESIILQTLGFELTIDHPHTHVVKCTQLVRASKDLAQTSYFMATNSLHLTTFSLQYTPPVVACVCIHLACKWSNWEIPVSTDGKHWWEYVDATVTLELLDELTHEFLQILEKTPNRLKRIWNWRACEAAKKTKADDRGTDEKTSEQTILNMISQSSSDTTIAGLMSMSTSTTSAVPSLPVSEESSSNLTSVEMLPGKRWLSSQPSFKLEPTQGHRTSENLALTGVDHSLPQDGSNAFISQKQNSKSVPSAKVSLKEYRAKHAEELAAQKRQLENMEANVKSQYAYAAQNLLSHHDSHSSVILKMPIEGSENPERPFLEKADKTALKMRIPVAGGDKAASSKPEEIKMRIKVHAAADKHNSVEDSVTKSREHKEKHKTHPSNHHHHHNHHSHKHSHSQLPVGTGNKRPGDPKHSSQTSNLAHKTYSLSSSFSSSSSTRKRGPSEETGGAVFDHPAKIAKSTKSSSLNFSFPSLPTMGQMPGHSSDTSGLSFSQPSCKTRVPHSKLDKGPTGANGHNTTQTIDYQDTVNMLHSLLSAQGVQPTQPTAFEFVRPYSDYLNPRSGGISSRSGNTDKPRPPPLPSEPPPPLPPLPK
T2 sequence (P50613 whole entry): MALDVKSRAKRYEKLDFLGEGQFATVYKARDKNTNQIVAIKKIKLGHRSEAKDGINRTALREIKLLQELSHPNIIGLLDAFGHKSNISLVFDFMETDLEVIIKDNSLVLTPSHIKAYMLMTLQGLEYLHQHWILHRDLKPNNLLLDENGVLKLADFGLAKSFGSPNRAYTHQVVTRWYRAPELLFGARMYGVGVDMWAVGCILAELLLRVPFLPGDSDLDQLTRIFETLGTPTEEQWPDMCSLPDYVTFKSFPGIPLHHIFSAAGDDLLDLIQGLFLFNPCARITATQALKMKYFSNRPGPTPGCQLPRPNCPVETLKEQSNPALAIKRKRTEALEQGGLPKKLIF
T2 sequence (P51946 whole entry partner): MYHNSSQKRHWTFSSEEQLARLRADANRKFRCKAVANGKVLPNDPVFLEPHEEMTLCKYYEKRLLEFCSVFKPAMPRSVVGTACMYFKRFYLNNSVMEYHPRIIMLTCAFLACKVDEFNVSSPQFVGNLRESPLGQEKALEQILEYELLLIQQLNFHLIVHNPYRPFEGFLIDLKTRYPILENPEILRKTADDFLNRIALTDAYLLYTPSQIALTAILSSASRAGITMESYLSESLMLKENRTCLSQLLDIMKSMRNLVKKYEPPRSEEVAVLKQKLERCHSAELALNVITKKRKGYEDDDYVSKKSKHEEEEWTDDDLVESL
T2 sequence (P51948 whole entry partner): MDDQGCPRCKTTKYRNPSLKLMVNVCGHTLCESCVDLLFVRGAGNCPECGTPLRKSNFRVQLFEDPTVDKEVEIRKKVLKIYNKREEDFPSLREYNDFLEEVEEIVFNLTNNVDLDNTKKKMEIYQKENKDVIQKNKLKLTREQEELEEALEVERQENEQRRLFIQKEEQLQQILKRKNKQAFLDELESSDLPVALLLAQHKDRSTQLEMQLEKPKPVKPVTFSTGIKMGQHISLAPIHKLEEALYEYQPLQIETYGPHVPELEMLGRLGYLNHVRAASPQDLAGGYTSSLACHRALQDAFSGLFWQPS
Chain of CDK6/cyclin D1 (Q00534 whole entry): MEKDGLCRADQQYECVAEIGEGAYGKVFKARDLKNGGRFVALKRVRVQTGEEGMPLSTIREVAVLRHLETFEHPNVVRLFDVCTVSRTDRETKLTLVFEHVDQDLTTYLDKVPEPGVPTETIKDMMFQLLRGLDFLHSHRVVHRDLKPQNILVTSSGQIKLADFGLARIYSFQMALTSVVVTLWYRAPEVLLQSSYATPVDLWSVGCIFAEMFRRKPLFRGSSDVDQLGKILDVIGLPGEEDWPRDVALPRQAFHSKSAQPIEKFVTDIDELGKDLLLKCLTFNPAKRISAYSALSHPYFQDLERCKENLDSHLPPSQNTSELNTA
Chain of CDK6/cyclin D1 (P24385 whole entry partner): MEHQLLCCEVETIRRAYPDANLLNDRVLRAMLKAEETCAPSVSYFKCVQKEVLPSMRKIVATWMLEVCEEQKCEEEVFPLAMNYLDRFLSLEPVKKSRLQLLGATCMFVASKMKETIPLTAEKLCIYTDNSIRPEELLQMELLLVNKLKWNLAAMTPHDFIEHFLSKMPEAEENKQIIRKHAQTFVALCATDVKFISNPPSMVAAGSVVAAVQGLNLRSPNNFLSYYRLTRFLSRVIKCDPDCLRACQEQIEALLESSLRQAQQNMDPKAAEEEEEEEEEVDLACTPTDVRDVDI
Chain of CKD9/Cyclin H (P50750 whole entry): as the sequence (P50750 whole entry) above
T1 sequence (P06493 whole entry): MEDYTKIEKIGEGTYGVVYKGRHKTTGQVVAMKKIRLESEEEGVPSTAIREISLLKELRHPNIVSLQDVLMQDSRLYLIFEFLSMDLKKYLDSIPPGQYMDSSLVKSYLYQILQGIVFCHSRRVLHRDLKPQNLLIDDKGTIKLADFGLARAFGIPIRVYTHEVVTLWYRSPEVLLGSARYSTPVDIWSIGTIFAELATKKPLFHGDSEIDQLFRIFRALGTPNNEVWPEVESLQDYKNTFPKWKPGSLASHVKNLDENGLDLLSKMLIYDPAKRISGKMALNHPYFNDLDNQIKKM
T1 sequence (P14635 whole entry partner): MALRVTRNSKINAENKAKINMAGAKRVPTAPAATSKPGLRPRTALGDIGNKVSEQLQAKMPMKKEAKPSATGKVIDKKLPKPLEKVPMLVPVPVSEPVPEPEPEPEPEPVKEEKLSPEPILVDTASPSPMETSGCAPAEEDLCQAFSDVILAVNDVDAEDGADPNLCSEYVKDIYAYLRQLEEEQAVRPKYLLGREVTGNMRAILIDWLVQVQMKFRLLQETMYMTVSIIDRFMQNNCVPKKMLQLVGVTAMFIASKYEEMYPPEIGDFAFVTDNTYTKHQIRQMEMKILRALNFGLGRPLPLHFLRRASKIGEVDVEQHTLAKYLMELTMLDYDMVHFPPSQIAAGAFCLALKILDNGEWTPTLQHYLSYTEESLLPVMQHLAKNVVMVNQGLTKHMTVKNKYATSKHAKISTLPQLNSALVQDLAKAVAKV
Chain of CDK1/cyclin B (P06493 whole entry): as the sequence (P06493 whole entry) above
Chain of CDK1/cyclin B (P14635 whole entry partner): as the sequence (P14635 whole entry partner) above
Chain of CDK4/cyclin D1 (P11802 whole entry): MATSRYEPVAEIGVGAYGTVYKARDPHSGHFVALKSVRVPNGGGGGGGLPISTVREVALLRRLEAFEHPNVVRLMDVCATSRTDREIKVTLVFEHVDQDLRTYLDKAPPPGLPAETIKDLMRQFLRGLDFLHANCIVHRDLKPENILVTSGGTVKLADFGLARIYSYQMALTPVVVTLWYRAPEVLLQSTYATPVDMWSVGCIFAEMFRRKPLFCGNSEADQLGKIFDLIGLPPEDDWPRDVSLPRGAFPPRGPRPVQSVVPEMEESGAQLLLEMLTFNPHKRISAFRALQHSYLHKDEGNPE
Chain of CDK4/cyclin D1 (P24385 whole entry partner): as the sequence (P24385 whole entry partner) above
Chain of CDK5/p35 (Q00535 whole entry, canonical isoform): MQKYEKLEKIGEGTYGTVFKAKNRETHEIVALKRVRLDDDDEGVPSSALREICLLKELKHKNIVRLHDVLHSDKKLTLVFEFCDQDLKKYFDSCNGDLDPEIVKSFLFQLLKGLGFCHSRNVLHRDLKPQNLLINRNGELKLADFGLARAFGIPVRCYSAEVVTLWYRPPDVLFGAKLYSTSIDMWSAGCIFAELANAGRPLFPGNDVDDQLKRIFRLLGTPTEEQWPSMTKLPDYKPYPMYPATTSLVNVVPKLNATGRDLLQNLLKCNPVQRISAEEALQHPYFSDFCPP
Chain of CDK5/p35 (Q15078 whole entry partner, canonical isoform): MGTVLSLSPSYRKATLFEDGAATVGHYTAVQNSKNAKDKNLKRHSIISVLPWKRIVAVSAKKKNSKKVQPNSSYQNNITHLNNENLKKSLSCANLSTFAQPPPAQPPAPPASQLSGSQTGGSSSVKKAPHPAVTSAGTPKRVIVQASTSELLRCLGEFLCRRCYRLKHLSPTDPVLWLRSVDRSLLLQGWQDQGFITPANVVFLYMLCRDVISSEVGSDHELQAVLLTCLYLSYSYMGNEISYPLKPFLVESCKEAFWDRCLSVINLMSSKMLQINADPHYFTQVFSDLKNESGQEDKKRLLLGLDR

With `Nc1nccc(-c2c[nH]c3nccc(Oc4cccc(F)c4)c23)n1` [I-3, 4-(4-(3-fluorophenoxy)-1H-pyrrolo[2,3-b]pyridin-3-yl)pyrimidin-2-amine] as the compound, how does the pCDK2 levels [1] read?
Its pCDK2 levels is “reduced”.

And the phosphor-RB levels [1]?
The phosphor-RB levels was “reduced”.

And the IC50 (CDK5/p35)?
Its IC50 is 8 nM.

What about the IC50 (MCF-10A; MCF-10A (Normal breast-like), read-out: CTG and Alamar Blue Assay IC50) of the same compound?
Its IC50 is 2070 nM.

What about the IC50 (MCF-10A; MCF-10A, Table 6, read-out: Cell viability by CellTiter Glo IC50) of the same compound?
Its IC50 is 2070 nM.

And the IC50 (CKD9/Cyclin H)?
Its IC50 is 7 nM.

What about the IC50 (PLC/PRF/5 cells) of the same compound?
The IC50 was 1520 nM.

What about the IC50 (CDK1/Cyclin B1) of the same compound?
The IC50 was 1070 nM.

And the IC50 (CDK7/cyclin H [2])?
Its IC50 is 403 nM.

What about the IC50 (CDK9/cyclin T1 [3]) of the same compound?
The IC50 was 702 nM.

What about the IC50 (CDK2/Cyclin E1) of the same compound?
Its IC50 is 22 nM.

What about the half-life ([4]; CD-1, mouse, plasma, male CD1 mice, IV 1 mg/kg) of the same compound?
The half-life was 3.4 ± 0.7 h.

And the clearance ([4]; CD-1, mouse, plasma, male CD1 mice, IV 1 mg/kg, read-out: CLp (converted))?
Its clearance is 41.7 mL/min/kg.

And the AUC(0-inf) [4, 7]?
The AUC(0-inf) was 6570 ± 542 ng·h/mL.

What about the Cmax [4, 7] of the same compound?
Its Cmax is 2500 ± 55.5 ng/mL.

What about the Plasma clearance ([4]; CD-1 male mice, IV) of the same compound?
Its Plasma clearance is 41.7 mL/min/kg.

And the “Plasma clearance as share of hepatic blood flow (5.4 L/kg) in mice” value ([4]; CD-1 male mice, IV)?
Its value is “approximately 50%”.

And the “Volume of distribution compared to total body water content (0.7 L/kg)” value ([4]; CD-1 male mice, IV)?
The value was 17 fold.

What about the “Time up to which plasma concentrations were observed” value ([4]; CD-1 male mice, after IV administration, not observed at 24 hour) of the same compound?
Its value is “up to 8 hours”.

What about the “Bioavailability (% F)” value ([4]; male CD1 mice, PO 10 mg/kg vs IV 1 mg/kg) of the same compound?
Its value is 147.5 ± 14.8 % F.

What about the Vd ([4]; CD-1, mouse, plasma, iv, 1 mg/kg, CD-1 male mice, IV, read-out: Volume of distribution) of the same compound?
Its Vd is 12.5 L/kg.

And the AUC(0-t) ([4]; CD-1, mouse, plasma, iv, 1 mg/kg, male CD1 mice, IV 1 mg/kg)?
Its AUC(0-t) is 384 ± 98.9 ng·h/mL.

What about the Vd ([4]; CD-1, mouse, plasma, iv, 1 mg/kg, male CD1 mice, IV 1 mg/kg, read-out: Vdss) of the same compound?
The Vd was 6.8 ± 2.4 L/kg.

And the AUC(0-t) ([4]; CD-1, mouse, plasma, po, 10 mg/kg, CD-1 male mice, PO 10 mg/kg)?
The AUC(0-t) was 5670 ng·h/mL.

What about the Tmax ([4]; CD-1, mouse, plasma, po, 10 mg/kg, CD-1 male mice, PO 10 mg/kg, read-out: Tmax (oral absorption)) of the same compound?
The Tmax was 0.5 to 1 h.

What about the AUC(0-t) ([4]; CD-1, mouse, plasma, po, 10 mg/kg, male CD1 mice, PO 10 mg/kg) of the same compound?
The AUC(0-t) was 5670 ± 569 ng·h/mL.

And the Tmax ([4]; CD-1, mouse, plasma, po, 10 mg/kg, male CD1 mice, PO 10 mg/kg, read-out: Tmax)?
Its Tmax is 1 ± 0.3 h.

What about the bioavailability ([4]; mouse, plasma, CD-1 male mice, PO 10 mg/kg, read-out: Oral suspension bioavailability (% F)) of the same compound?
Its bioavailability is > 100%.

And the IC50 (CDK7/cyclin H [5])?
The IC50 was 18 nM.

And the IC50 (CDK9/cyclin T1 [6])?
Its IC50 is 7 nM.

What about the IC50 (CDK6/cyclin D1) of the same compound?
Its IC50 is 285 nM.

And the IC50 (CDK2/cyclin A)?
The IC50 was 4 nM.

And the IC50 (CDK4/cyclin D1)?
Its IC50 is 414 nM.

And the IC50 (CDK1/cyclin A)?
The IC50 was 6 nM.

And the IC50 (CDK2/cyclin E)?
Its IC50 is 4 nM.

What about the IC50 (CDK1/cyclin B) of the same compound?
The IC50 was 8 nM.

And the IC50 (CDK5/p25)?
Its IC50 is 8 nM.
